Experimental data as given in patent publication US20240041830A1, “CIRCULATING BIOMARKERS OF RESPONSE TO PD-1/PD-L1 BLOCKADE AND GSK-3 INHIBITION” (Brown University, priority 2022, published 2024).

Test system: tumor biopsies (colorectal cancer, pancreatic cancer)
Assay: GeoMx Digital Spatial Profiling of patient tumor biopsies
Assay type: in vivo, human
Description: Digital spatial profiling. An Agilent Technologies hybridization oven was used for baking tissue onto slides (Agilent, Santa Clara, CA, USA). A NanoString GeoMx® Digital Spatial Profiler (DSP) instrument (NanoString, Seattle, WA, USA) was used to scan slides, identify regions of interest (ROIs), and collect photocleavable barcodes according to manufacturer instructions. A custom panel was designed to include the following proteins: Ms IgG1, Ms IgG2a, Rb IgG, GAPDH, Histone H3, S6, Beta-2-microglobulin, CD31, CD45, Ki-67, ARG1, CD11 b, CD11 c, CD14, CD163, CD39, CD40, CD68, HLA-DR, GZMB, CD20, CD3, CD34, CD4, CD56, CD66b, CD8, Foxp3, Fibronectin, 4-1BB, B7-H3, CTLA4, GITR, IDO1, LAG3, OX40L, STING, Tim-3, VISTA, Bcl-2, ER-α, EpCAM, Her2, MART1, NY-ESO-1, PR, PTEN, PanCk, SMA, CD127, CD25, CD27, CD44, CD45RO, CD80, ICOS, PD-1, PD-L1, and PD-L2. An Eppendorf MasterCycler Gradient Thermal Cycler was used to generate the Illumina sequencing libraries from the photocleaved tags. (Eppendorf, Hamburg, Germany). An Agilent Fragment Analyzer (RRID: SCR_019417) was used for library size distribution analysis with a high-sensitivity NGS Fragment Kit (Cat #DNF-474-0500, Agilent, Santa Clara, CA, USA). qPCR for quantification was run using an Illumina-compatible KAPA Library Quantification Kits (ROX Low) (cat #KK4873) on an Applied Biosystems ViiA 7 Real-Time qPCR/PCR Thermal Cycler System (Applied Biosystems, San Francisco, CA, USA) and was analyzed using QuantStudio software (RRID: SCR_018712). Sequencing was performed using a NextSeq 500/550 High Output Kit v2.5 (75 Cycles) kit (cat #20024906) on an Illumina Sequencing NextSeq 550 System (RRID: SCR_016381, Illumina, San Diego, CA, USA). The initial annotated dataset went through quality control (QC) to check if housekeeper genes and background (isotype) control molecules were themselves correlated with the predictors of interest. Every ROI was tested for raw sequencing reads (segments with <1000 raw reads were removed), % sequencing saturation, defined as (1-deduplicated reads/aligned reads)%, segments below ˜50% were not analyzed), and nuclei count per segment, for which >100 nuclei per segment is generally recommended. Both immunoglobulins (lgGs) and housekeeper genes were highly correlated with one another. Signal to noise (SNR) ratio was calculated using background probes and all probes were detected above the background in at least one ROI. data were normalized based on background IgG expression and all normalization factors were well distributed. Data analysis and visualization were generated using R (RRID: SCR_001905; R Development Core Team, 2020).
PanCK+ expression of immunosuppressive CD39 negatively correlated with time-on-treatment (Tx time) while CD45+ expression of monocyte/macrophage marker CD163 positively correlated with Tx time. The inventors used GeoMx Digital Spatial Profiling (DSP) technology to profile the expression of fifty-nine proteins in tumor biopsies (N=12) from patients treated with elraglusib (N=7). A total of 42% (N=5) of the tumor biopsies analyzed were collected near or before treatment start (pre-treatment) and 58% (N=7) of the biopsies analyzed were collected from post-treatment (average time-on-treatment (Tx time) at post-treatment biopsy: 270 days) (FIG. 7A). Primary tumor types included colorectal cancer (N=4, 33%) and pancreatic cancer (N=8, 67%), while metastatic biopsy tissue sites included lung (N=2, 17%), liver (N=7, 58%), rectum (N=2, 17%), and pleura (N=1, 8%). the inventors analyzed five paired tumor biopsies ([…], 83%), and two unpaired biopsies (N=2 slides total, 17%). Half (N=6, 50%) of the tumor sections were needle biopsies and half (N=6, 50%) were tissue biopsies. All patients included in this analysis were considered responders based on the definition used in the Phase 1 trial that treatment response is equal to disease control greater than 16 weeks. […]

[1] = CD45+ regions, post- vs pre-treatment biopsies
[2] = tumor-infiltrating CD45+ segments, post- vs pre-treatment

**Q.** How did the “CD11 b protein expression” value [1] turn out when Cn1cc(C2=C(c3coc4ccc(F)cc34)C(=O)NC2=O)c2cc3c(cc21)OCO3 [elraglusib] was run?
**A.** decreased

**Q.** And the “CD11c protein expression” value [1]?
**A.** decreased

**Q.** What about the CD40 protein expression [1] of the same compound?
**A.** decreased

**Q.** What about the CD66b protein expression [1] of the same compound?
**A.** decreased

**Q.** And the CD68 protein expression [1]?
**A.** decreased

**Q.** And the CD80 protein expression [1]?
**A.** decreased

**Q.** What about the IDO1 protein expression [1] of the same compound?
**A.** decreased

**Q.** What about the LAG3 protein expression [1] of the same compound?
**A.** decreased

**Q.** And the PD-1 protein expression [1]?
**A.** decreased

**Q.** What about the PD-L1 protein expression [1] of the same compound?
**A.** decreased

**Q.** What about the PD-L2 protein expression [1] of the same compound?
**A.** decreased

**Q.** What about the VISTA protein expression [1] of the same compound?
**A.** decreased

**Q.** What about the PD-L1 expression (PanCK+ segments, post- vs pre-treatment biopsies) of the same compound?
**A.** downregulation

**Q.** What about the ARG1 protein expression [2] of the same compound?
**A.** reduced

**Q.** And the B2M protein expression [2]?
**A.** reduced

**Q.** And the B7-H3 protein expression [2]?
**A.** elevated

**Q.** What about the CD11c protein expression [2] of the same compound?
**A.** reduced

**Q.** And the CD34 protein expression [2]?
**A.** reduced

**Q.** What about the CD44 protein expression [2] of the same compound?
**A.** reduced

**Q.** What about the CD45R0 protein expression [2] of the same compound?
**A.** reduced

**Q.** What about the CD56 protein expression [2] of the same compound?
**A.** reduced

**Q.** What about the CD66b protein expression [2] of the same compound?
**A.** reduced

**Q.** And the CD68 protein expression [2]?
**A.** reduced

**Q.** What about the CD80 protein expression [2] of the same compound?
**A.** reduced

**Q.** And the CD127 protein expression [2]?
**A.** elevated

**Q.** What about the CTLA4 protein expression [2] of the same compound?
**A.** elevated

**Q.** What about the GITR protein expression [2] of the same compound?
**A.** reduced

**Q.** And the HLA-DR protein expression [2]?
**A.** reduced

**Q.** And the IDO1 protein expression [2]?
**A.** reduced

**Q.** What about the Ki-67 protein expression [2] of the same compound?
**A.** reduced

**Q.** What about the OX4OL protein expression [2] of the same compound?
**A.** elevated

**Q.** What about the PD-1 protein expression [2] of the same compound?
**A.** reduced

**Q.** What about the PD-L1 protein expression [2] of the same compound?
**A.** reduced

**Q.** And the PD-L2 protein expression [2]?
**A.** reduced

**Q.** And the PTEN protein expression [2]?
**A.** reduced

**Q.** What about the VISTA protein expression [2] of the same compound?
**A.** reduced
